Patent US20120214862A1, “MODULATION OF FACTOR 7 EXPRESSION” (ISIS Pharmaceuticals, Inc., priority 2009, published 2012)
In the oligonucleotide strings, read from the 5' end, every base follows the letter of its sugar. An asterisk marks phosphorothioate; unmarked linkages are phosphodiester. Other units and linkages are bracketed, terminal groups are in braces. A string of capitals states the bases alone. e = 2'-O-(2-methoxyethyl) (MOE); [5mC] = 5-methylcytosine; d = 2'-deoxy (DNA)

The substances below were run on human Factor 7 mRNA (assay: Antisense inhibition of human Factor 7 mRNA in HepB3 cells, lipofectin, 50 nM, real-time RT-PCR). Conditions: Example 1; HepB3 cells, lipofectin, 50 nM, ~24 h, relative to untreated control cells.
Format: cell-based
Method: Antisense oligonucleotides targeted to a Factor 7 nucleic acid were tested for their effects on Factor 7 mRNA in vitro. Cultured HepB3 cells at a density of 4,000 cells per well were transfected using lipofectin reagent with 50 nM antisense oligonucleotide. After a treatment period of approximately 24 hours, RNA was isolated from the cells and Factor 7 mRNA levels were measured by real-time RT-PCR, as described herein. Factor 7 mRNA levels were adjusted according to total RNA content as measured by RIBOGREEN®. Results are presented as percent inhibition of Factor 7, relative to untreated control cells.
(§1) Antisense oligonucleotides targeted to a Factor 7 nucleic acid were designed and tested for their effects on Factor 7 mRNA in vitro. Certain antisense oligonucleotides from Table 3 were also retested for their effects on Factor 7 mRNA in vitro. Cultured HepB3 cells at a density of 4,000 cells per well were transfected using lipofectin reagent with 50 nM antisense oligonucleotide. After a treatment period of approximately 24 hours, RNA was isolated from the cells and Factor 7 mRNA levels were measured by real-time RT-PCR, as described herein. Human Factor 7 primer probe set RTS 2927 was used to measure mRNA levels. Factor 7 mRNA levels were adjusted according to total RNA content as measured by RIBOGREEN®. Results are presented as percent inhibition of Factor 7, relative to untreated control.
as §1, with “tested” for “tested for their effects on Factor 7 mRNA in vitro. Certain antisense oligonucleotides from Table 3 were also retested”
These gapmers were designed by creating gapmers shifted slightly upstream and downstream (i.e. “microwalk”) of the original gapmers from Table 7. Gapmers were also created with various motifs, e.g. 5-10-5 MOE, 3-14-3 MOE, and 2-13-5 MOE. These gapmers were tested in vitro. Cultured HepB3 cells at a density of 4,000 cells per well were transfected using lipofectin reagent with 50 nM antisense oligonucleotide. After a treatment period of approximately 24 hours, RNA was isolated from the cells and Factor 7 mRNA levels were measured by real-time RT-PCR. Factor 7 mRNA levels were adjusted according to total RNA content, as measured by RIBOGREEN®. Results are presented as percent inhibition of Factor 7, relative to untreated control cells.

| Substance | % Inhibition (human Factor 7 mRNA) |
| --- | --- |
| 407891 (antisense e[5mC]*eA*eT*eG*eG*dA*d[5mC]*dT*dT*dG*dA*dG*dG*d[5mC]*dA*e[5mC]*eA*e[5mC]*eT*eG) [compound 407891] | 66% |
| 407911 (antisense e[5mC]*e[5mC]*e[5mC]*e[5mC]*eT*dT*dG*d[5mC]*dA*dG*dG*dA*dG*dT*d[5mC]*e[5mC]*eT*eT*eG*e[5mC]) [compound 407911] | 74% |
| 407654 (antisense e[5mC]*e[5mC]*eA*e[5mC]*eT*dG*d[5mC]*dA*dG*d[5mC]*d[5mC]*dA*dG*dG*dG*e[5mC]*e[5mC]*eT*eG*eG) [compound 407654] | 34% |
| 407907 (antisense eA*eA*eT*eG*eA*dG*dA*dA*dG*d[5mC]*dG*d[5mC]*dA*d[5mC]*dG*eA*eA*eG*eG*e[5mC]) [compound 407907] | 35% |
| 407930 (antisense e[5mC]*eA*eA*eT*eG*dA*dA*dG*dG*d[5mC]*dA*dG*dA*dG*d[5mC]*eA*eG*e[5mC]*eA*eG) [compound 407930] | 70% |
| 407912 (antisense e[5mC]*e[5mC]*e[5mC]*eG*eG*dT*dA*dG*dT*dG*dG*dG*dT*dG*dG*e[5mC]*eA*eT*eG*eT) [compound 407912] | 46% |
| 407913 (antisense eG*eA*eT*eG*e[5mC]*d[5mC]*d[5mC]*dG*dT*d[5mC]*dA*dG*dG*dT*dA*e[5mC]*e[5mC]*eA*e[5mC]*eG) [compound 407913] | 74% |
| 407952 (antisense eG*eG*eA*eT*e[5mC]*d[5mC]*dT*dG*dG*dG*dA*dG*d[5mC]*dT*dA*e[5mC]*eA*eG*e[5mC]*e[5mC]) [compound 407952] | 41% |

Same assay, conditions: Example 4; HepB3 cells, lipofectin, 50 nM, ~24 h, relative to untreated control

| Substance | % Inhibition (human Factor 7 mRNA) |
| --- | --- |
| 422190 (antisense eG*e[5mC]*eG*d[5mC]*dG*dG*dA*dA*dG*dA*dA*dG*dG*dG*dA*d[5mC]*dG*eG*eA*eA) [compound 422190] | 12% |

Same assay, conditions: HepB3 cells, lipofectin, 50 nM antisense oligonucleotide, approximately 24 hours, primer probe set RTS 2927, relative to untreated control

| Substance | % Inhibition of human Factor 7 mRNA levels |
| --- | --- |
| 416503 (antisense eT*eA*eG*e[5mC]*e[5mC]*dA*d[5mC]*d[5mC]*d[5mC]*d[5mC]*dG*d[5mC]*dG*dG*dG*e[5mC]*eT*eG*eG*e[5mC]) [compound 416503] | 0% |
| 416568 (antisense e[5mC]*eA*eT*eT*eG*dT*dG*d[5mC]*d[5mC]*dT*dG*dG*d[5mC]*dA*d[5mC]*eA*e[5mC]*eA*eG*eG) [compound 416568] | 14% |
| 416494 (antisense e[5mC]*eA*eG*eA*eT*dT*dT*dA*dA*dA*d[5mC]*dT*dG*d[5mC]*dA*eG*eA*eT*eG*eA) [compound 416494] | 0% |
| 416431 (antisense eA*eG*eG*eG*eA*dG*d[5mC]*d[5mC]*d[5mC]*dG*dG*d[5mC]*d[5mC]*dG*d[5mC]*eA*eG*e[5mC]*eT*e[5mC]) [compound 416431] | 25% |
| 416545 (antisense eA*eG*eA*eA*eA*d[5mC]*dA*dT*d[5mC]*d[5mC]*d[5mC]*dA*dT*dT*dT*eT*e[5mC]*e[5mC]*e[5mC]*eA) [compound 416545] | 8% |
| 416516 (antisense eG*eT*eG*eA*eG*dA*dA*dT*dA*d[5mC]*dA*dA*d[5mC]*dA*dG*eA*eT*eG*eA*eG) [compound 416516] | 24% |
| 416564 (antisense eG*e[5mC]*e[5mC]*eA*e[5mC]*dT*d[5mC]*dA*d[5mC]*dA*dG*dA*dA*dA*dG*e[5mC]*eT*eG*eG*eA) [compound 416564] | 0% |
| 416560 (antisense eT*eA*eA*eA*eA*d[5mC]*dT*dT*dT*dA*dT*dT*dT*dA*d[5mC]*eA*eA*eG*eA*eG) [compound 416560] | 0% |
| 416527 (antisense eG*eA*eG*e[5mC]*eT*dT*d[5mC]*d[5mC]*d[5mC]*dA*dA*dG*dT*dT*dG*eG*e[5mC]*eA*eG*eT) [compound 416527] | 49% |
| 416488 (antisense e[5mC]*eA*eG*eG*eT*d[5mC]*d[5mC]*dT*d[5mC]*d[5mC]*d[5mC]*dA*d[5mC]*dT*dG*e[5mC]*eA*eG*e[5mC]*e[5mC]) [compound 416488] | 41% |
| 416468 (antisense eT*eG*eG*eG*eA*dG*dA*d[5mC]*d[5mC]*d[5mC]*dT*dG*dG*dT*dG*eT*eA*e[5mC]*eA*e[5mC]) [compound 416468] | 46% |
| 416515 (antisense eT*eA*eG*eG*e[5mC]*dA*dT*dG*dA*d[5mC]*d[5mC]*dA*dT*d[5mC]*d[5mC]*eT*e[5mC]*eA*eA*eT) [compound 416515] | 39% |
| 416499 (antisense eG*eA*eG*eA*eG*d[5mC]*dT*dG*d[5mC]*dA*d[5mC]*d[5mC]*dT*dG*dG*e[5mC]*e[5mC]*eG*eG*e[5mC]) [compound 416499] | 7% |
| 416435 (antisense e[5mC]*e[5mC]*e[5mC]*eA*eT*d[5mC]*dA*d[5mC]*dT*dG*dT*dA*dA*dG*dA*eA*eA*eT*e[5mC]*e[5mC]) [compound 416435] | 3% |

Same assay, conditions: HepB3 cells; gapmers (5-10-5, 3-14-3, 2-13-5 MOE) targeted to nucleobases 4868 to 4899 of SEQ ID NO: 1

| Substance | % Inhibition of human Factor 7 mRNA levels |
| --- | --- |
| 422225 (antisense eA*eG*eG*dA*dG*d[5mC]*d[5mC]*d[5mC]*dG*dA*dG*dT*dT*d[5mC]*dT*dG*d[5mC]*eA*eG*eG) [compound 422225] | 56% |
| 422223 (antisense eG*eA*eG*d[5mC]*d[5mC]*d[5mC]*dG*dA*dG*dT*dT*d[5mC]*dT*dG*d[5mC]*dA*dG*eG*eA*eG) [compound 422223] | 48% |
| 422145 (antisense eG*e[5mC]*e[5mC]*e[5mC]*eG*dA*dG*dT*dT*d[5mC]*dT*dG*d[5mC]*dA*dG*eG*eA*eG*e[5mC]*eG) [compound 422145] | 57% |
| 422143 (antisense e[5mC]*e[5mC]*eG*eA*eG*dT*dT*d[5mC]*dT*dG*d[5mC]*dA*dG*dG*dA*eG*e[5mC]*eG*eG*e[5mC]) [compound 422143] | 70% |
| 422291 (antisense eT*eT*d[5mC]*dT*dG*d[5mC]*dA*dG*dG*dA*dG*d[5mC]*dG*dG*d[5mC]*e[5mC]*eT*eA*eA*eA) [compound 422291] | 53% |
| 422148 (antisense eG*eG*eA*eG*e[5mC]*d[5mC]*d[5mC]*dG*dA*dG*dT*dT*d[5mC]*dT*dG*e[5mC]*eA*eG*eG*eA) [compound 422148] | 57% |

Same assay, conditions: HepB3 cells; gapmers targeted to nucleobases 11830 to 11869 of SEQ ID NO: 1 (Table 9)

| Substance | % Inhibition of human Factor 7 mRNA levels |
| --- | --- |
| 422241 (antisense eG*eA*dG*dA*d[5mC]*dA*dA*dT*dG*dG*dT*d[5mC]*dA*dG*dG*eG*e[5mC]*eT*eG*eG) [compound 422241] | 61% |
| 422174 (antisense eG*e[5mC]*eT*dG*dG*d[5mC]*dT*dG*dA*dG*dG*dA*dG*dA*d[5mC]*dA*dA*eT*eG*eG) [compound 422174] | 55% |
| 422243 (antisense eA*eG*dG*dA*dG*dA*d[5mC]*dA*dA*dT*dG*dG*dT*d[5mC]*dA*eG*eG*eG*e[5mC]*eT) [compound 422243] | 62% |

Same assay, conditions: HepB3 cells; gapmers targeted to nucleobases 14707 to 14732 of SEQ ID NO: 1 (Table 11)

| Substance | % Inhibition of human Factor 7 mRNA levels |
| --- | --- |
| 422281 (antisense eG*e[5mC]*dA*dG*d[5mC]*d[5mC]*dT*dG*dA*dG*dG*d[5mC]*d[5mC]*dA*dG*e[5mC]*eA*eG*eA*eT) [compound 422281] | 57% |

Same assay, conditions: HepB3 cells; gapmers targeted to nucleobases 15188 to 15211 of SEQ ID NO: 1 (Table 13)

| Substance | % Inhibition of human Factor 7 mRNA levels |
| --- | --- |
| 422230 (antisense e[5mC]*eA*dT*dG*d[5mC]*dA*dT*dG*dG*dT*dG*dA*dT*dG*d[5mC]*eT*eT*e[5mC]*eT*eG) [compound 422230] | 65% |
